The record followed here is ChEMBL document CHEMBL1140276, “Synthesis of 4(5)-phenylimidazole-based analogues of sphingosine-1-phosphate and FTY720: discovery of potent S1P1 receptor agonists” (Bioorg Med Chem Lett, 2005).

The target in test [1] is T1, Sphingosine 1-phosphate receptor 4 (Homo sapiens, UniProt O95977).
T1 sequence (O95977 whole entry): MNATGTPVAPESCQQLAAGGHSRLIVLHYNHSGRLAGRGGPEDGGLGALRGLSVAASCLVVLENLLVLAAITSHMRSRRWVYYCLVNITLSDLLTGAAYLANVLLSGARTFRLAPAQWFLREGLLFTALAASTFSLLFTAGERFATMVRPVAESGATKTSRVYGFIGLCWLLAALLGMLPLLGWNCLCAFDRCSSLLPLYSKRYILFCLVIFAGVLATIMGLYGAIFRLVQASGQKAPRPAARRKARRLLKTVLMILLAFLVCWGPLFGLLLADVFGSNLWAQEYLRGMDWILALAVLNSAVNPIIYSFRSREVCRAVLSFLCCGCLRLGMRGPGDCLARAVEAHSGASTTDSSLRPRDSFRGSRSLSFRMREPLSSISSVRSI
In words: Effective concentration against sphingosine 1-phosphate receptor 4 determined by a [c-35S]-GTP binding assay.

Test [2] deals with T2, Sphingosine 1-phosphate receptor 1 (Homo sapiens, UniProt P21453). In words: Maximal efficacy against sphingosine-1-phosphate receptor 1 determined by a [c-35S]-GTP binding assay.
In test [3] the target is T3, Sphingosine 1-phosphate receptor 2 (Homo sapiens, UniProt O95136). Description: Maximal efficacy against sphingosine 1-phosphate receptor 2 determined by a [c-35S]-GTP binding assay.
Test [4] addresses T4, Sphingosine 1-phosphate receptor 3 (Homo sapiens, UniProt Q99500). Description: Maximal efficacy against sphingosine 1-phosphate receptor 3 determined by a [c-35S]-GTP binding assay.
The target of test [5] is T5, Sphingosine 1-phosphate receptor 4 (Homo sapiens) (UniProt O95977).
T5 sequence (whole entry): T1 sequence (O95977 whole entry)
In words: Maximal efficacy against sphingosine 1-phosphate receptor 4 determined by a [c-35S]-GTP binding assay.

Test [6] deals with T6, Sphingosine 1-phosphate receptor 5 (Homo sapiens, UniProt Q9H228). In words: Maximal efficacy against sphingosine 1-phosphate receptor 5 determined by a [c-35S]-GTP binding assay.
Test [7] addresses T2, Sphingosine 1-phosphate receptor 1. Description: Effective concentration against sphingosine-1-phosphate receptor 1 determined by a [c-35S]-GTP binding assay.
Test [8] addresses T4, Sphingosine 1-phosphate receptor 3. Description: Effective concentration against sphingosine 1-phosphate receptor 3 determined by a [c-35S]-GTP binding assay.
The target in test [9] is T6, Sphingosine 1-phosphate receptor 5. Description: Effective concentration against sphingosine 1-phosphate receptor 5 determined by a [c-35S]-GTP binding assay.
For test [10], the target named is T3, Sphingosine 1-phosphate receptor 2. In words: Maximal efficacy against sphingosine 1-phosphate receptor 2 determined by a [c-35S]-GTP binding assay;.
Test [11] shares this target. Description: Effective concentration against sphingosine 1-phosphate receptor 2 determined by a [c-35S]-GTP binding assay.
Test [12] shares this target. In words: Maximal efficacy against sphingosine 1-phosphate receptor 2 determined by a [c-35S]-GTP binding assay; no agonist activity.
Test [13] addresses T4, Sphingosine 1-phosphate receptor 3. In words: Maximal efficacy against sphingosine 1-phosphate receptor 3 determined by a [c-35S]-GTP binding assay; no agonist activity.
Test [14] addresses T5, Sphingosine 1-phosphate receptor 4 (Homo sapiens). Description: Maximal efficacy against sphingosine 1-phosphate receptor 4 determined by a [c-35S]-GTP binding assay; no agonist activity.

What is called EC50 is the midpoint of the concentration-response curve.

T3 sequence (O95136 whole entry): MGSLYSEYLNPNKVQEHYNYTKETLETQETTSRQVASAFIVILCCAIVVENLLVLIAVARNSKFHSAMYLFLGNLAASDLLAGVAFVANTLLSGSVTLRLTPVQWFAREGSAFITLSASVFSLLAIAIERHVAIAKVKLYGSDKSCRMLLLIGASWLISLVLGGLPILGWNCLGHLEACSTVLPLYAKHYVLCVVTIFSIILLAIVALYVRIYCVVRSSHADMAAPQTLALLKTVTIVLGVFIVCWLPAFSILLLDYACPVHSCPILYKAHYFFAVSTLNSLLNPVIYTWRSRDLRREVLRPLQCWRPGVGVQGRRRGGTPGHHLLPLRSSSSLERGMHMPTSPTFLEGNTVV
T4 sequence (Q99500 whole entry): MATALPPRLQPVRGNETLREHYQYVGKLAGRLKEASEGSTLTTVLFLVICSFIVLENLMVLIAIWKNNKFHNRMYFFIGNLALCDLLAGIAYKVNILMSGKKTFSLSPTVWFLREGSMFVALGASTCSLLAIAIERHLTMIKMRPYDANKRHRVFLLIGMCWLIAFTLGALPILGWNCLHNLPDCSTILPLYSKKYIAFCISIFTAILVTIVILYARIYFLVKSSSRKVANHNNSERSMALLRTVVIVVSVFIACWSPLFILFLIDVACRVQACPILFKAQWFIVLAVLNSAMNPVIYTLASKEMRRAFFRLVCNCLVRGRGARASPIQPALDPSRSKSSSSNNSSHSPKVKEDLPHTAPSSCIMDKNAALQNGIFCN
T6 sequence (Q9H228 whole entry): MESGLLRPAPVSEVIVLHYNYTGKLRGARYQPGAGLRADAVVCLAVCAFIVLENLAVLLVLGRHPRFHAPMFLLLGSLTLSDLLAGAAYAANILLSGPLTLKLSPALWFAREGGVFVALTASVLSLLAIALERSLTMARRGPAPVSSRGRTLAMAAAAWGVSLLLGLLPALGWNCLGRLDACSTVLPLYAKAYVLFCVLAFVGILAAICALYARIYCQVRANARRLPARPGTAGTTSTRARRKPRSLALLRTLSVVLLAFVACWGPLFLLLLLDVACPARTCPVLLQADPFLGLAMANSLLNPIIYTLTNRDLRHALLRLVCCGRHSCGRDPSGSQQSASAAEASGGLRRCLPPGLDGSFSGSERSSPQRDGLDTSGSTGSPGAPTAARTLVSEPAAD
T2 sequence (P21453 whole entry): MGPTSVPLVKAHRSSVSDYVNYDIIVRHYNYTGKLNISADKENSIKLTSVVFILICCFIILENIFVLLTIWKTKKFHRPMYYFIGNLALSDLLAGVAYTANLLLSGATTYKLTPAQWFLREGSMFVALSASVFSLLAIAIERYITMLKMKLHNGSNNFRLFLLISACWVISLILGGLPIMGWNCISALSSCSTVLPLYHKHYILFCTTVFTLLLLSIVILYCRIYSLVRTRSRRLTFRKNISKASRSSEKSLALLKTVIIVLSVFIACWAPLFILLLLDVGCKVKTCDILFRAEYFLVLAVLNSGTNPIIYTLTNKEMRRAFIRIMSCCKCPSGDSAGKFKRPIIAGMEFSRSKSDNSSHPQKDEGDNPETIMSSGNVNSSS

In turn, `CCCCCCCCc1ccc(CCC(N)(CO)COP(=O)(O)O)cc1` (configuration not stated) came in with an EC50 in [1] of 41 nM. For the same molecule, the Emax in test [2] came out at 1; in test [3], 0; in [4], 0.5; in test [5], 0.78; in test [6], 0.56.
With `CCCCCCCCc1ccc(-c2c[nH]c([C@@H](N)COP(=O)(O)O)n2)cc1`, the EC50 is 4 nM in [7], 330 nM in [8], 150 nM in test [1] and 12 nM in [9]. Moreover, the Emax came to 0.69 in [2]; 0.42 in test [4]; 0.79 in [5]; 0.69 in [6]; 0 in test [10].
As to `CCCCCCCCc1ccc(-c2c[nH]c(C(N)(CO)CO)n2)cc1`, the EC50 came out at 5100 nM in test [7], 660 nM in test [1] and 6700 nM in test [9]. Moreover, the Emax turned out to be 0.66 in test [2]; 0 in test [3]; 0 in test [4]; 0.79 in test [5]; 0.48 in [6].
Consider `CCCCCCCCc1ccc(-c2c[nH]c([C@@H](N)COP(O)(O)=S)n2)cc1`, for which the EC50 in test [7] was 6.4 nM; in test [8] it was 690 nM; in [1] it was 190 nM; in test [9], 29 nM. In addition, the Emax in [2] came out at 0.67; in test [3], 0; in test [4], 0.45; in test [5] it was 0.82; in test [6], 0.82.
Regarding `CCCCCCCCc1ccc(-c2c[nH]c([C@H](N)COP(=O)(O)O)n2)cc1`, the EC50 in [7] was determined as 7 nM; in test [8], 1700 nM; in test [1] it was 400 nM; in [9], 37 nM. Besides, the Emax in test [2] came out at 0.75; in test [3], 0; in test [4], 0.56; in test [5] it was 1; in test [6], 0.73.
On to `CCCCCCCCc1ccc(-c2c[nH]c(C(N)(CO)COP(O)(O)=S)n2)cc1` (configuration not stated), for which the EC50 was 150 nM in test [7], 790 nM in test [8], 89 nM in [1] and 16 nM in [9]. Besides, the Emax in [2] turned out to be 0.66; in test [3] it was 0; in test [4], 0.68; in test [5], 0.72; in test [6], 0.56.
Take `CCCCCCCCc1ccc(-c2c[nH]c(C(N)(CO)COP(=O)(O)O)n2)cc1` (configuration not stated): the EC50 amounted to 7.9 nM in test [7]; 18 nM in test [11]; 630 nM in test [8]; 160 nM in test [1]; 17 nM in test [9]. Also, the Emax in [2] was found to be 0.91; in test [3], 0.95; in test [4] it was 0.21; in test [5], 0.87; in [6] it was 0.66.
For `CCCCCCCCCCCCC/C=C/[C@@H](O)[C@@H](N)COP(=O)(O)O`, the Emax in test [2], in test [3], in test [4], in test [5] and in test [6] was 1 throughout.
As for `CCCCCCCCc1ccc(-c2c[nH]c(C(C)(N)CO)n2)cc1` (configuration not stated), the Emax in test [2], in test [6], in [12], in test [13] and in test [14] was 0 throughout.
With `CCCCCCCCc1ccc(-c2c[nH]c([C@H](N)CO)n2)cc1`, the EC50 in [7] came to 2700 nM; in test [8], 2700 nM; in [1] it was 7400 nM; in [9], 860 nM. Besides, the Emax amounted to 0.98 in test [2]; 0 in test [3]; 0.38 in [4]; 0.9 in [5]; 0.83 in test [6].
For the molecule `CCCCCCCCc1ccc(-c2c[nH]c(C(C)(N)COP(O)(O)=S)n2)cc1` (configuration not stated), the EC50 in test [7] was determined as 9.8 nM; in [8], 1600 nM; in test [1] it was 170 nM; in test [9] it was 51 nM. Moreover, the Emax in test [2] turned out to be 0.87; in [3], 0; in [4], 0.44; in test [5] it was 0.68; in [6] it was 0.6.
Regarding `CCCCCCCCc1ccc(-c2c[nH]c(C(C)(N)COP(=O)(O)O)n2)cc1` (configuration not stated), the EC50 amounted to 4.7 nM in test [7], 780 nM in test [8], 91 nM in test [1] and 26 nM in [9]. The Emax was determined as 0.88 in test [2]; 0 in [3]; 0.53 in [4]; 0.94 in test [5]; 0.72 in [6].
